One may read the EC50 as the concentration that produces a half-maximal response.

The values that follow come from patent US20170367338A1, “COMPOSITIONS AND METHODS FOR IMPROVING AGRONOMIC CHARACTERISTICS OF PLANTS” (MONSANTO TECHNOLOGY LLC, priority 2014, published 2017).

≈ marks a conversion by molar mass, not a printed value. Read-outs that look alike come from different tables or passages of the source. Marks after values point to notes of the source that are not given here.

Data set [1] has as its system root knot nematode. The data set is described as follows: Pre-plant incorporated (PPI) greenhouse test of root knot nematode on cucumber plants. Particulars: fourteen day pre-plant incorporated; for pest or weed control at 4000 g/ha: 336 h, 4 kg/ha, read-out: percent control (galling reduction), 4 kg/ha rate; for pest or weed control at 8000 g/ha: 8 ka/ha, read-out: percent control (galling reduction), 8 ka/ha rate. It is filed as in vivo. The text has this: The PPI test examines the effect of pre-incorporation of compounds in soil and longer aging to simulate in furrow methods of nematicide application in the field. The PPI test exposes compounds to a higher volume of soil and drying which can result in more severe soil binding. Compounds are also aged for longer periods which can lead to more extensive biotic and abiotic degradation further limiting activity.
The chemically treated soil (sandy soil mix) for all treatment days (e.g., 7 days, 14 days, 21 days) treatments is potted into their appropriate pots. On the same day the 7 day treatment pots are seeded. One week later eggs are applied and 14 days after egg application the test is harvested. The 14 day treatments are planted 7 days after the first planting. The 14 day planting and 7 day inoculation happen on the same day. One week later the 14 day treatments are inoculated with eggs. These are harvested 14 days after the inoculation. The 21 day treatments are planted 14 days after the first planting. The 14 day inoculation and 21 day planting are done on the same day. One week later the 21 day plants are inoculated with eggs. The 7 day treatment is harvested the same day as the 21 day inoculation. Fourteen days after inoculation the 21 day plants are harvested.
For each compound a stock is prepared using 4 mg material in 4 ml of acetone. The soil is mixed by placing 80 ml of field soil and 320 ml of sand in a plastic bag and mixing well. The formulation for treatment is done by adding 2.13 ml (8 kg/ha rate), 1.06 ml (4 kg/ha rate) or 0.53 ml (2 kg/ha rate) to a vial and raising it with 10 ml in 0.05% X100. Soil is then treated by adding the entire 10 ml to the 400 ml of mix in the bag. The treated soil is immediately mixed well in the sealed bag to distribute the compound evenly. Approximately 95 ml is used to fill each 2-inch square pot up to the top with some soil compression and flattening. For each compound and for the control treatments 4 pots are filled. All pots are watered until moist but with no run-out through the bottom.
The PPI test simulates 8, 4 and 2 kg/ha rates incorporated 15 cm deep in the field and is equivalent to the 2, 1 and 0.5 kg/ha drench application rates in the standard 2-inch pot cucumber greenhouse assay.

In data set [2] the test system is root knot nematode (RKN). The experiment in a line: RKN greenhouse soil assay on cucumber plants. The format is in vivo. The settings on record: Acetone formulation (10% acetone in 0.05% Triton X 100), 1 mg/kg. An excerpt:
Cucumber seeds are planted in a sandy soil mixture in two inch square plastic pots. When the cotyledons are fully opened and just as the first leaf begins to emerge, usually 7 days after planting, chemistry for the 7 day treatment is applied. One week later the chemistry for the 0 day treatment is applied. Separate plants are used for each application. The plants are generally in the 1-2 leaf stage now. At least four hours after the chemistry application the pots are inoculated with root knot nematode (RKN) eggs. Plants are rated for galling 14 days after the egg inoculation.
(§1) One milligram of chemistry per four pots is equal to one kilogram per hectare of chemical. A standard test uses four replications. For rates above 2 kg/ha, the desired amount of chemical is weighed into a 30 ml vial (example: 8 kg/ha rate =8 mg chemical in 30 ml vial). The chemical is dissolved in 2 ml of appropriate solvent, generally acetone. For rates below 2 kg/ha, 2 milligrams of chemistry is weighed into the vial and dissolved in 2 ml of the solvent. The appropriate amount of chemical concentrate is then pipetted into a separate 30 ml vial and solvent is added to bring the volume to 2 ml (example 0.5 kg/ha=0.5 ml of concentrate+1.5 ml solvent). Each dissolved concentrate is then brought to a total of 20 milliliters using 0.05% Triton X 100 surfactant solution.
(§2) Pots to be treated are moist but not saturated. To each of four pots, five milliliters of the appropriate chemical solution is pipetted to the media surface making sure to avoid contact with the base of the plant. Immediately following chemical application, using a mist nozzle, the pot surface is wetted sufficiently to saturate the pot watering in the chemistry. The chemical application is done in the morning.
(§3) Nematode eggs, either SCN or RKN, are added to distilled water to create a concentration of 1000 vermiform eggs […]. At least four hours after chemical treatment the eggs are applied to the treated pots plus non-treated check plants. A small hole about 1 cm deep is punched into the pot surface. One milliliter of the nematode egg slurry is pipetted into the hole. Immediately afterwards the hole is gently covered. Watering of the test plants is then restricted to only water as needed to prevent wilt for a period of 24 hours. After the 24 hour restricted watering, normal sub-irrigation watering is done for the duration of the test.

Data set [3] deals with Heterodera glycines (SCN). The data set is described as follows: Seed treatment test of soybean cyst nematode on soybean. It is filed as in vivo. Particulars: Heterodera glycines, 672 h, read-out: percent cyst reduction relative to control blank treatment; for pest or weed control at 0.375 mg/g: 0.375 mg ai/gram seed; for pest or weed control at 1.5 mg/g: 1.5 mg ai/gram seed. As for the experimental part: For a given concentration the chemical is dissolved in 500 ul of acetone and one gram of cucumber seed (RKN test) or soybean seed (SCN test) is added (e.g., 20 mg active ingredient in 500 ul acetone plus 1 gram of seed). The seed solutions are agitated until all seeds were thoroughly covered with the chemical solution. The acetone is then allowed to evaporate by air drying the seeds. The seeds are planted in 2-inch pots containing sandy soil and then the pots are inoculated with 1000 Meloidogyne incognita (RKN) or 1000 Heterodera glycines (SCN) eggs per pot three days after planting. Plants are rated for galling 14 days after egg inoculation for RKN or 28 days after egg inoculation for SCN.

Data set [4] concerns root knot nematode (RKN). The data set is described as follows: RKN greenhouse soil assay on cucumber plants. The format is in vivo. The settings on record: Radex emulsifiable concentrate formulation (6.25% active ingredient).
The subject of data set [5] is Meloidogyne incognita. The data set is described as follows: Summer field evaluation of pre-plant incorporated compounds on squash. The settings on record: 4 kg/ha. The format is in vivo. The method, then: Test plots of 33 cm diameter holes were bored 41 cm deep into clay soil and filled with a mixture of 80% sand and 20% silt loam soil. Technical compound for each treatment was dissolved in 50 ml acetone containing 250 ul of Triton X-100 surfactant. This solution was added to 450 ml water and poured onto 95 liters of sand/soil mixture in a rotating drum mixer. While continuing to rotate the mixing drum 66 grams of chopped, galled, tomato roots was added and thoroughly distributed. The treated soil was sufficient to fill the top 15 cm of each of the 6 replicate plots, thus simulating a PPI treatment. The plots were then watered lightly and a mixture of M. incognita eggs and larvae were injected 5 cm deep at 5 points within the plot (100k eggs/larvae in 10m1 per plot). Three-week old squash (cv. Liberator III) with 1 fully expanded true leaf was planted 4 days after soil treatment, one per plot.

For data set [6], the system named is soybean cyst nematode (SCN). The data set is described as follows: SCN greenhouse sand assay on soybean plants. The format is in vivo. Particulars: Glycine max, 672 h, test d, read-out: percent control (cyst number reduction) relative to the control blank treatment; for pest or weed control at 100 g/ha: 0.1 kg/ha; for pest or weed control at 250 g/ha: 0.25 kg/ha.
Description: Soybeans seeds are planted in 100% sand in two inch square plastic pots. Chemical treatment is done when the soybeans show the first trifoliate beginning to emerge about 10 to 12 days after planting. At least four hours after chemical application the nematode soybean cyst nematode (SCN) eggs are applied and 28 days after the egg inoculation the test is harvested.
as §1, §2, §3

Data set [7] deals with C. elegans. The data set is described as follows: Three day C. elegans well assay. Particulars: Caenorhabditis elegans, L1 larvae. It is filed as in vivo. The gist of the method:
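Contact assay in wells: DMSO dilutions (4 ul from 100× stocks at 10 mg/ml) with bacterial feed in M9 buffer plus ampicillin and nystatin. L1 (starvation-arrested) or L4 worms added, shaken at 20° C. Scored at 4, 24, 48 and 72 hours.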

The subject of data set [8] is caspase-3. The experiment in a line: Caspase-3 activity in H4IIE cells (DEVD-AMC). The format is cell-based. Particulars: rat hepatoma derived H4IIE cells, concentrations up to 300 μM. As for the experimental part:
To evaluate whether the compound classes of this invention are able to induce apoptosis, caspase-3 activity was determined after compound exposure in rat hepatoma derived H4IIE cells using a caspase substrate (DEVD, Asp-Glu-Val-Asp) labeled with a fluorescent molecule, 7-Amino-4-methylcoumarin (AMC). Caspase 3 cleaves the tetrapeptide between D and AMC, thus releasing the fluorogenic […] AMC. Following the test article exposure to cells in 96-well plates, medium was aspirated from plates and PBS added to each well. Plates were stored at −80° C. to lyse cells and store samples until further analysis. On the day of analysis, plates were removed from freezer and thawed. Caspase buffer with fluorescent substrate was added to each well and incubated at room temperature for one hour. AMC release was measured in a spectrofluorometer at an excitation wavelength of 360 nm and an emission wavelength of 460 nm. Values are expressed as relative fluorescent units (RFU).

Setting [9] is: 24 h, one day of exposure, read-out: EC50 L1 1D.
The mark [10] stands for this setting: 48 h, two days of exposure, read-out: EC50 L1 2D.
[11] abbreviates: 72 h, three days of exposure, read-out: EC50 L1 3D.

On to `Clc1ccc(-c2noc(-c3cccs3)n2)cc1` [compound 5527], for which, in data set [1] (test a), the pest or weed control at 4000 g/ha is 90%; the “percent control (galling reduction), 2 kg/ha rate” value is 57^a percent; the pest or weed control at 8000 g/ha amounted to 96%. For the same compound, the “percent control (galling reduction), Acetone 1 mg/kg” value in data set [2] was found to be 91%. Further, in data set [3] (test a), the pest or weed control at 0.375 mg/g is 43% and the pest or weed control at 1.5 mg/g worked out at 71%. For the same compound, the “percent control (galling reduction), Radex 1 mg/kg” value in data set [4] amounted to 80%.

Turning to `Clc1ccc(-c2noc(-c3ccco3)n2)cc1` [compound 5523], the “control of M. incognita by PPI application” value in data set [5] is recorded as “significant control”. In addition, in data set [1] (test a), the pest or weed control at 4000 g/ha is 87%; the “percent control (galling reduction), 2 kg/ha rate” value was 59^a percent; the pest or weed control at 8000 g/ha came out at 99%. For the same compound, in data set [2], the “percent control (galling reduction), Acetone 1 mg/kg” value is given as 86%. Moreover, in data set [4], the “percent control (galling reduction), Radex 1 mg/kg” value is reported as 86%.

On to `Cc1cc(Cl)ccc1-c1nsc(-c2ccco2)n1` [compound 5938], for which, in data set [6], the pest or weed control at 100 g/ha came to 60% and the pest or weed control at 250 g/ha came out at 89%. Moreover, in data set [5], the “control of M. incognita by PPI application” value is “excellent control”. Moreover, in data set [1] (test b), the pest or weed control at 4000 g/ha amounted to 90% and the pest or weed control at 8000 g/ha amounted to 100%. Further, in data set [7] (setting [9]), the EC50 turned out to be 1.6 µg/mL (≈ 5.78 µM). The EC50 in data set [7] (setting [10]) was determined as 1.6 µg/mL (≈ 5.78 µM). Further, the 50% effective concentration (EC50) in data set [7] (setting [11]) worked out at 1.6 µg/mL (≈ 5.78 µM). In addition, the “induction of caspase-3” value in data set [8] is reported as “no induction of caspase-3”.

On to `Fc1cc(Cl)ccc1-c1cnc(-c2cccs2)o1` [compound 5915], for which, in data set [6], the pest or weed control at 100 g/ha amounted to 44% and the pest or weed control at 250 g/ha came to 74%. For the same compound, in data set [1] (test b), the pest or weed control at 4000 g/ha was 70% and the pest or weed control at 8000 g/ha is 99%. Besides, the EC50 in data set [7] (setting [9]) was 0.4 µg/mL (≈ 1.43 µM). For the same compound, in data set [7] (setting [10]), the concentration giving a half-maximal response (EC50) was found to be 0.4 µg/mL (≈ 1.43 µM). Also, the EC50 in data set [7] (setting [11]) was found to be 0.4 µg/mL (≈ 1.43 µM). In addition, the “induction of caspase-3” value in data set [8] is given as “no induction of caspase-3”.

Regarding `Fc1ccc(-c2noc(-c3cccs3)n2)cc1` [compound 5479], in data set [1] (test a), the pest or weed control at 4000 g/ha came to 89%; the “percent control (galling reduction), 2 kg/ha rate” value was 71^a percent; the pest or weed control at 8000 g/ha was determined as 100%. Also, in data set [2], the “percent control (galling reduction), Acetone 1 mg/kg” value is given as 91%. Further, in data set [3] (test a), the pest or weed control at 0.375 mg/g came out at 67% and the pest or weed control at 1.5 mg/g worked out at 88%. In data set [3] (test b), the pest or weed control at 0.375 mg/g was determined as 69% and the pest or weed control at 1.5 mg/g was 83%. Besides, in data set [4], the “percent control (galling reduction), Radex 1 mg/kg” value worked out at 96%.
